Experimental findings from patent publication US9399631B2, “Polyphenol proteasome inhibitors, synthesis, and methods of use” (UNIVERSITY OF SOUTH FLORIDA, priority 2003, dated 2016) are described below.

For assay [1], the system named is purified 20S proteasome. The assay is described as follows: Inhibition of chymotrypsin-like activity of purified 20S proteasome (source not stated). The format is biochemical. On the procedure: (§1) Inhibition of purified 20S proteasome activity by natural or synthetic GTPs. Purified prokaryotic (0.5 μg) or eukaryotic (0.02 μg) 20S proteasome was incubated with 20 μM fluorogenic peptide substrate, Suc-Leu-Leu-Val-Tyr-AMC for 30 min at 37° C. in […] of assay buffer (50 mM Tris-HCl, pH 7.5), with or without a natural or synthetic tea polyphenol. After incubation, production of hydrolyzed 7-amido-4-methyl-coumarin (AMC) groups was measured using a multi-well plate VERSAFLUOR Fluorometer with an excitation filter of 380 nm and an emission filter of 460 nm (BIO-RAD), and a multi-well plate reader Wallac 1420 VICTORTM^2 with an excitation filter of 355 nm and an emission filter of 460 nm (EG&G WALLAC).

The subject of assay [2] is LNCaP cells. The assay is described as follows: Western blot of proteasome target proteins in LNCaP cells. The format is cell-based, human. The following applies: 50 μM, 3 to 12 hours. On the procedure: Cell Culture, Cell Extract Preparation, and Western Blot Assay. Human leukemia Jurkat T and prostate cancer LNCaP cells were cultured in RPMI 1640 medium supplemented with 10% fetal calf serum, 100 units/ml of penicillin, and 100 μg/ml streptomycin. Human immortalized, non-transformed NK cells (YT cell line) (38) were cultured in RPMI 1640 supplemented with 1 mM MEM sodium pyruvate solution, 0.1 mM MEM non-essential amino acids solution, 10% fetal calf serum. 100 units/ml penicillin, and 100 μg/ml streptomycin. Normal (WI-38) and simian virus 40 (SV40)-transformed (VA-13) human fibroblasts were grown in Dulbecco's modified Eagle's medium supplemented with 10% fetal calf serum, 100 units/ml of penicillin and 100 μg/ml of streptomycin. All cells were maintained at 37° C. in a humidified incubator with an atmosphere of 5% CO2. A whole cell extract was prepared in accordance with An et al. (An, B. et al. Cell Death Differ, 1998, 5:1062-75). Briefly, cells were harvested, washed with PBS twice, and homogenized in a lysis buffer [50 mM Tris-HCl (pH 8.0), 5 mM EDTA, 150 mM NaCl, 0.5% NP-40, 0.5 mM phenylmethylsulfonyl fluoride, and 0.5 mM dithiothreitol] for 30 min at 4° C. Afterwards, lysates were centrifuged at 12,000×g for 15 min at 4° C., and the supernatants were collected as whole cell extracts. Equal amounts of protein extract (60 μg) were resolved by SDS-polyacrylamide gel electrophoresis and transferred to a nitrocellulose membrane using a Semi-Dry Transfer system (BIO-RAD, Hercules, Calif.). Jurkat T, LNCaP, or DU-145 cells were treated with various concentrations of synthetic or natural tea polyphenols for indicted hours. The enhanced chemiluminescence (ECL) Western blot analysis was then performed using specific antibodies to the proteins of interest (p^27kip, IκB-α, PARP, Bax or actin). The ratio of p27 or IκB-α to the corresponding actin was determined by scanning intensities of the protein bands.
To investigate whether (−)-EGCG-amide and (+)-EGCG-amide inhibit intact tumor cell proteasome activity, human prostate cancer LNCaP cells were treated with 25 μM of (−)- or (+)-EGCG-amide for up to 9 hours, followed by measurement of p27, IκB-α and Bax, three well-known proteasome target proteins (Pagano, M. et al. Science, 1995, 269:682-685; An, B. et al. Cell Death Differ, 1998, 5:1062-75; Sun, J. et al. Cancer Res, 2001, 61:1280-1284; Palombella, V. J. et al. Cell, 1994, 78:773-785; Thompson, J. E. et al. Cell, 1995, 80:573-582; Perkins, N. D. Trends Biochem Sci, 2000, 25:434-440; Chang, Y. C. et al. Cell Growth Differ, 1998, 9:79-84; Li, B. and Dou, Q. P. Proc Natl Acad Sci USA, 2000, 97:3850-3855; Nam, S. et al. Cancer Epidemiol Biomarkers Prey, 2001, 10:1083-1088). In this experiment (−)-EGCG and (+)-EGCG were used as positive controls.
Having determined that the synthetic GTP-1 to −5 analogs are able to inhibit the proteasomal chymotrypsin-like activity in vitro (FIG. 8), these compounds were investigated for their potency in inhibiting intact tumor cellular proteasome activity. To do so, human prostate cancer LNCaP cells were treated with one of these compounds for the indicated hours, followed by measuring levels of proteasome target proteins, p27, IκB-α, and Bax, and polyubiquitinated proteins.

The test system of the next assay is Jurkat T cells. The assay is described as follows: Flow cytometry cell cycle analysis, Jurkat T cells. The format is cell-based, human. The following applies: 24 hours. On the procedure: (§2) Flow Cytometry. Cell cycle analysis based on DNA content was performed as in An et al. (An, B. et al. Cell Death Differ, 1998, 5:1062-75). At each time point, cells were harvested, counted, and washed twice with PBS. Cells (5×10^6) were suspended in 0.5 ml PBS, fixed in 5 ml of 70% ethanol overnight at −20° C., centrifuged, resuspended again in 1 ml of propidium iodide staining solution (50 μg propidium iodide, 100 units RNase A and 1 mg glucose per ml PBS), and incubated at room temperature for 30 minutes. The cells were then analyzed with FACScan (Becton Dickinson Immunocytometry, Calif.), ModFit LT and WinMDI V.2.8 cell cycle analysis software (Verity Software; Topsham, Me.). The cell cycle distribution is shown as the percentage of cells containing G1, S, G2, and M phase DNA judged by propidium iodide staining The apoptotic population is determined as the percentage of cells with sub-G1 DNA content (<G1).
Previous studies have shown that overexpression of p27 (Pagano, M. et al. Science, 1995, 269:682-685), IκB-α (Verma, I. M. et al. Genes Dev, 1995, 9:2723-2735), and Bax (Li, B. and Dou, Q. P. Proc Natl Acad Sci USA, 2000, 97:3850-3855) results in G1 arrest or apoptosis. If increased levels of these proteasome target proteins by the synthetic EGCG analogs are functional, growth inhibition of tumor cells would be expected. […] The G1 population was indeed increased by 26% and 9% by treatment with GTP-4 and GTP-5, respectively (FIG. 11).

Assay [3] addresses T1, purified 20S proteasome (UniProt G1T4Q9).
T1 construct: IC50; other: chymotrypsin-like activity of purified 20S proteasome
The assay is described as follows: Inhibition of chymotrypsin-like activity of purified 20S proteasome (source not stated). The following applies: chymotrypsin-like activity of purified 20S proteasome. The format is biochemical. The procedure: as §1

For assay [4], the system named is LNCaP cells. The assay is described as follows: Flow cytometry cell cycle analysis, LNCaP cells. The format is cell-based, human. The note with it: 10 μM, 24 hours. On the procedure: as §2
It has been shown that overexpression of p27 and IκB-α results in G1 arrest. If increased levels of these proteasome target proteins by synthetic GTPs are functional, it would be expected to see growth arrest of tumor cells in G1 phase. To test this hypothesis, asynchronous prostate LNCaP cells were treated with 10 μM of synthetic (+)-EGCG or (+)-GCG, along with each respective natural GTP as control, for 24 hours. Cells were then harvested, and analyzed by cell cycle analysis by flow cytometry. […] Growth arrest was determined by the increase in the percentage of the G1 population.

The subject of assay [5] is LNCaP cells. The assay is described as follows: Soft agar colony formation assay. The format is cell-based, human. The following applies: 10 μM, 14 day-incubation. The procedure: Soft Agar Assay. The soft agar assay was performed according to Smith et al. (Smith, D. M. et al. Mol Med, 2002, 8:382-392) with a few modifications. In brief, in a six-well plate, a bottom feeder layer (0.6% agar) was prepared with DMEM media containing 10% fetal bovine serum, 100 units/ml penicillin, and 100 μg/ml streptomycin. A top layer (0.3% agar) was prepared with DMEM and the same media as described above but containing 2×10^4 prostate cancer LNCaP cells and indicated analogs or DMSO as a control. Plates were incubated at 37° C. in 5% CO2 in a humidified incubator for two weeks. MTT (1 mg/ml) was added to each well and incubated overnight to allow complete formation of purple formazan crystals. The plates were then scanned and photographed, and the number of colonies was quantified by QUANTITY ONE v.4.0.3 software (Bio-Rad, Hercules, Calif.).
The […] effects of several GTP analogs were investigated with a soft agar assay that measures the transforming activity of human tumor cells. LNCaP cells were plated in soft agar (see Materials and Methods) along with 50 μM of GTP-1, -2, -3, (−)-EGCG (as a positive control; Smith, D. M. et al. Mol Med, 2002, 8:382-392, 2002), or the solvent (as a negative control), followed by a 14 day-incubation to allow for colony formation (FIGS. 12A and 12B).
In a second experiment, LNCaP cells were plated in soft agar along with 10 μM of each indicated GTP or solvent (H2O), followed by a 14 day-incubation to allow for colony formation (FIG. 21A). […] Colonies were quantified with an automated counter and presented as mean values from triplicate independent experiments. Error bars denote standard deviations.

For assay [6], the target named is T2, 20S eukaryotic proteasome (Oryctolagus cuniculus, UniProt G1T4Q9).
T2 construct: purchased BOSTON BIOCHEM (Cambridge, Mass.)
T2 sequence (G1T4Q9 1-263): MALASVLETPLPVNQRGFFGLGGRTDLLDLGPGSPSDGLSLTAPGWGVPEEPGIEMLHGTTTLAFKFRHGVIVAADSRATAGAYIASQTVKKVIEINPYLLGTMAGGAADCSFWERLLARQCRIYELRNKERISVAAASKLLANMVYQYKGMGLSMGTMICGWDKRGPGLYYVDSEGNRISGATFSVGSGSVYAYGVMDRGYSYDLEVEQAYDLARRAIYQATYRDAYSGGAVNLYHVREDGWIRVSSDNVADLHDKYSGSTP
The assay is described as follows: Inhibition of chymotrypsin-like activity of purified eukaryotic 20S proteasome (Suc-Leu-Leu-Val-Tyr-AMC). The format is biochemical, rabbit. The following applies: chymotrypsin-like activity, rabbit 20S proteasome. On the procedure:
Materials. Highly purified tea polyphenols (−)-EGCG (>95%), (−)-GCG (>98%), (−)-ECG (>98%), (−)-CG (>98%), fetal calf serum, propidium iodide, 3-[4,5-dimethylthiazol-2-yl]-2,5-diphenyltetrazolium bromide (MTT), RNase A, and DMSO were purchased from Sigma (St. Louis, Mo.). (+)-EGCG, benzyl-protected-(+)-EGCG, (+)-GCG, (−)-EGCG-amide, and (+)-EGCG-amide were prepared by enantioselective synthesis (see below). Purified 20S eukaryotic proteasome from rabbit was purchased from BOSTON BIOCHEM (Cambridge, Mass.). Purified 20S prokaryotic proteasome (Methanosarcina thermophile, Recombinant, E. coli) was purchased from CALBIOCHEM (La Jolla, Calif.). Fluorogenic peptide substrates Suc-Leu-Leu-Val-Tyr-AMC (for the proteasomal chymotrypsin-like activity) was obtained from Calbiochem (La Jolla, Calif.). RPMI 1640 medium, Dulbecco's modified Eagle's medium, MEM non-essential amino acids solution, MEM-sodium pyruvate solution, penicillin, and streptomycin were from INVITROGEN (Carlsbad, Calif.). Monoclonal antibody to p27^Kip was purchased from PHARMINGEN (San Diego, Calif.); polyclonal antibodies to IκB-α, Bax and actin, and monoclonal antibody to ubiquitin were from SANTA CRUZ Biotechnology Inc. (Santa Cruz, Calif.).
as §1
Purified prokaryotic (0.5 μg) or eukaryotic (0.02 μg) 20S proteasome was incubated with 20 μM fluorogenic peptide substrate, Suc-Leu-Leu-Val-Tyr-AMC for 30 minutes at 37° C. in 100 μl of assay buffer ([…] Tris-HCl, pH 7.5), with or without a natural or synthetic tea polyphenol. After incubation, production of hydrolyzed AMC groups was measured using a multi-well plate VERSAFLUOR Fluorometer with an excitation filter of 380 nm and an emission filter of 460 nm.
(−)-EGCG at 1 μM was incubated with eukaryotic 20S proteasome (0.02 μg) and suc-LLVY-AMC (20 μM) for the times indicated in FIG. 7. The chymotrypsin activity was measured and graphed in FIG. 7. Values are means from 4 independent experiments, and error bars represent standard deviations.
In the second experiment (−)-EGCG at 1 μM was pre-incubated with (SDS-pre) or without 0.01% SDS (no SDS) for 1 hour, followed by addition of eukaryotic 20S proteasome (0.02 μg) and suc-LLVY-AMC (20 μM). “SDS-post” represents the same treatment as “no SDS” except 0.01% SDS was added 1 hour after addition of the proteasome, (−)-EGCG and the substrate. AMC liberation was measured by fluorescence at each indicated time point and the percentage of chymotrypsin activity was determined. Values are means from 4 independent experiments, and error bars represent standard deviations.

With `COC(C)=O` [methyl acetate, reference compound], the “inhibition of the proteasome (in words)” value in the assay on purified 20S proteasome [1] is “cannot inhibit the proteasome”.

With `O=C(O[C@H]1Cc2cc(O)ccc2C[C@H]1OC(=O)c1cc(O)c(O)c(O)c1)c1cc(O)c(O)c(O)c1` [GTP-5], in the assay on LNCaP cells [2], the “levels of Bax protein” value is given as “increased only at 12 hours”; the “levels of proteasome target proteins (p27, IκB-α)” value was “significant increase in levels of p27 and IκB-α”. Besides, in the assay with Jurkat T cells, the “increase of G1 population” value worked out at 9% and the “increase of sub-G1 DNA cell population” value is roughly 15%. Further, the IC50 at purified 20S proteasome [3] came to 730 nM.

With “benzyl hydroxybenzoate [reference compound]”, the “inhibition of the proteasome (in words)” value with purified 20S proteasome [1] was “cannot inhibit the proteasome”.

For `O=C(OC1Cc2c(O)cc(O)cc2OC1c1cc(O)c(O)c(O)c1)c1cc(O)c(O)c(O)c1` (single isomer, unassigned; (-)) [(−)-GCG, reference compound], the “increase of G1 population (G1 arrest)” value with LNCaP cells [4] is roughly 14%. The “inhibition of colony formation” value with LNCaP cells [5] is 99%. Further, in assay [6], half-maximal inhibition (IC50) required 610 nM.

Turning to `O=C(O[C@H]1Cc2ccccc2C[C@H]1OC(=O)c1cc(O)c(O)c(O)c1)c1cc(O)c(O)c(O)c1` [GTP-4], in the assay with LNCaP cells [2], the “levels of Bax protein” value was “increased only at 12 hours”; the “levels of proteasome target proteins (p27, IκB-α)” value is “significant increase in levels of p27 and IκB-α”. In the assay on Jurkat T cells, the “increase of G1 population” value turned out to be 26% and the “increase of sub-G1 DNA cell population” value is reported as roughly 15%. Half-maximal inhibition against purified 20S proteasome [3] (IC50) was put at 340 nM.

In the case of `COC(=O)c1cc(O)c(O)c(O)c1` [methyl gallate, reference compound], the “inhibition of the proteasome (in words)” value in the assay with purified 20S proteasome [1] was “cannot inhibit the proteasome”.
